The target of this assay is T1, PKCα (Homo sapiens, UniProt P17252).
T1 construct: isolate and photo-release endogenous PKCa from the undiluted detergent fractionated HeLa cell extracts; endogenous in cells; host or cells: HeLa cells (ATCC)
In words: PKCα sub-cellular translocation measured by kinase activity after photocleavable antibody isolation. It is filed as cell-based. As to conditions: cultured HeLa cells stimulated with 200 nM PMA for 5 min; detergent fractionated; kinase activity of PC-antibody isolated PKCα; n=4. As for the experimental part: Cultured HeLa cells (ATCC; Manassas, Va.) were stimulated for 5 min with 200 nM Phorbol-12-Myristate-13-Acetate (PMA; EMD Biosciences, Inc., San Diego, Calif.) and subsequently detergent fractionated into sub-cellular compartments according to reported procedures [Ramsby et al. (1994) Electrophoresis 15, 265-277; Ramsby & Makowski. (1999) Methods Mol Biol 112, 53-66; Chiang et al. (2000) J Biochem Biophys Methods 46, 53-68]. PMA is a potent activator of PKCα and is well known to cause translocation of the kinase from the cytosolic to the membrane sub-cellular compartments [Ross & Joyner. (1997) Endothelium 5, 321-332; Bazan & Rapoport. (1996) J Pharmacol Toxicol Methods 36, 87-95; Yazlovitskaya & Melnykovych. (1995) Cancer Lett 88, 179-183].
A photocleavable antibody conjugated solid affinity matrix was prepared and used to isolate and photo-release the antigen into solution essentially as described in Example 2 except that in this case, a photocleavable anti-IgG secondary antibody was used to immobilize the unlabeled primary antibody onto the solid affinity matrix. This antibody affinity matrix was used to isolate and photo-release endogenous PKCa from the undiluted detergent fractionated HeLa cell extracts. […]

`CCCCCCCCCCCCCC(=O)O[C@@H]1[C@@H](C)[C@@]2(O)[C@@H](C=C(CO)C[C@]3(O)C(=O)C(C)=C[C@@H]23)[C@@H]2C(C)(C)[C@]12OC(C)=O` [PMA, Phorbol-12-Myristate-13-Acetate]: the “PKCα distribution, cytosol” value came out at 16±4% and the “PKCα distribution, membrane” value is listed as 84±3%.

The record behind these values is patent publication US8481263B2, “Bead-ligand-nascent protein complexes” (Ambergen, priority 2007, dated 2013).
